According to ChEMBL document CHEMBL5729134, “Apoptosis signal-regulating kinase 1 inhibitors and methods of use thereof” (2022):
pIC50: −log10 of the molar value.

Target: T1, Mitogen-activated protein kinase kinase kinase 5 (Homo sapiens, UniProt Q99683)
T1 sequence (Q99683 whole entry): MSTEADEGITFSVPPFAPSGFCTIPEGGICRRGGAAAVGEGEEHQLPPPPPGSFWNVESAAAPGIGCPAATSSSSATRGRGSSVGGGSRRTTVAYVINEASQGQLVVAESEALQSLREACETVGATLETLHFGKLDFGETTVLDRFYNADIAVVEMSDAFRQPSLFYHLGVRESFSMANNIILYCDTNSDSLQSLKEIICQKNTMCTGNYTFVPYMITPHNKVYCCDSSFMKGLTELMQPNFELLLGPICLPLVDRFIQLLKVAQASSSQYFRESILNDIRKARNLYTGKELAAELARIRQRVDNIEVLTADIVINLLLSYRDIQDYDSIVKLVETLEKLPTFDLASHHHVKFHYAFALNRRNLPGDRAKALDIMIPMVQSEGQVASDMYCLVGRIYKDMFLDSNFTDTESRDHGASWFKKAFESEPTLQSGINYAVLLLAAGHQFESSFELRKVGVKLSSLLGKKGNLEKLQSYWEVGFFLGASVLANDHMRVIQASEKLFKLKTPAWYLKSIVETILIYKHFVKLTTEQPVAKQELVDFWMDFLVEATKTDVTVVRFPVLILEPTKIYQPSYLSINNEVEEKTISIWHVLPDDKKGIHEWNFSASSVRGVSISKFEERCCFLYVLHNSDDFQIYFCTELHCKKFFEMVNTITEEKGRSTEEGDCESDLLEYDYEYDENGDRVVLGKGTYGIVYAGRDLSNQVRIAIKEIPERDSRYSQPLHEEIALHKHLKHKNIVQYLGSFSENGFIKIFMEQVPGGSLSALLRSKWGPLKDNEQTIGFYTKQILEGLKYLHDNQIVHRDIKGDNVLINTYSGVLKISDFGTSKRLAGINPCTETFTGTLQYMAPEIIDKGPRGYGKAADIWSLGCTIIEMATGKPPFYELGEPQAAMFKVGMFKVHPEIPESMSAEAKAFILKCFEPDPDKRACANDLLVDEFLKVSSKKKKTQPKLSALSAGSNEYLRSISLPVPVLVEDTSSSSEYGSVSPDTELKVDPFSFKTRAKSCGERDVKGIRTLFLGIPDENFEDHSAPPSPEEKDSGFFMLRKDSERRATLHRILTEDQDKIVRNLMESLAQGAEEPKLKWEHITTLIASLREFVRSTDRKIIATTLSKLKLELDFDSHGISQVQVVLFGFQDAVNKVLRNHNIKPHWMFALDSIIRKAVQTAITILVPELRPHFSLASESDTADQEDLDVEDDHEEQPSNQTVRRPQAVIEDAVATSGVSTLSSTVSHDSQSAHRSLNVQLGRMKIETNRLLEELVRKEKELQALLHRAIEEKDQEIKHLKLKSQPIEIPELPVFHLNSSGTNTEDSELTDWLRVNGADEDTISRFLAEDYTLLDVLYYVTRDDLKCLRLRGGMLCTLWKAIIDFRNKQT
Assay: HTRF KinEASE Assay : ASK1 was purchased from Thermofisher (Catalogue #PV4011), ATP was purchased from Sigma (Catalogue #A7699), HTRF® KinEASE Assay System was obtained from Cisbio (Bedford, Mass.). ½ Area plate was purchased from Perkin Elmer (Catalogue ##6005560). HTRF® KinEASE-STK is a generic method for measuring serine/threonine kinase activities using a time-resolved fluorescence resonance energy transfer (TR-FRET) immunoassay. The IC50 value for each compound was determined in the presence of compound (various concentration from 0 to 10 μM) and a fixed amount of ATP and peptide substrates. The test compound, 1 μM STK3 peptide substrate, and […] are incubated with kinase reaction buffer containing 50 mM HEPES Ph 7.5, 0.01% BRIJ-35, 10 mM MgCl2, and 1 mM EGTA for 30 minutes. 100 μM ATP is added to start kinase reaction and incubated for 3 hours. The STK3-antibody labeled with Eu3+-Cryptate and 125 nM streptavidin-XL665 are mixed in a single addition with stop reagents provided by the Cisbio kit used to stop the kinase reaction. Fluorescence is detected using an Envision Multilabeled 2014 reader from PerkinElmer. The Fluorescence is measured at 615 nm (Cryptate) and 665 nm (XL665) and a ratio of 665 nm/615 nm is calculated for each well. The resulting TR-FRET is proportional to the phosphorylation level. Staurosporine was used as the positive control. IC50 was determined by Xlfit 5.3.

SMILES	pIC50
C[C@H](CO)n1cnnc1-c1cccc(NC(=O)c2cc3c(cc2F)CCN(C)C3)n1	8.00 to 8.90
C[C@H](CO)n1cnnc1-c1cccc(NC(=O)c2cc3c(cc2F)CCN(S(=O)(=O)C2CC2)C3)n1	> 8.90
C[C@H](CO)n1cnnc1-c1cccc(NC(=O)c2cc3c(cn2)CCN(S(=O)(=O)N(C)C)C3)n1	> 8.90
C[C@H](CO)n1cnnc1-c1cccc(NC(=O)c2cc3c(cn2)CCN(C(=O)OCC(F)(F)F)C3)n1	> 8.90
C[C@H](CO)n1cnnc1-c1cccc(NC(=O)c2cc3c(cn2)CCN(S(=O)(=O)c2ccccc2)C3)n1	> 8.90
C[C@H](CO)n1cnnc1-c1cccc(NC(=O)c2cc3c(cc2F)CCN(C(=O)C(C)(C)C)C3)n1	8.00 to 8.90
C[C@H](CO)n1cnnc1-c1cccc(NC(=O)c2cc3c(cc2F)CCN(C(=O)OC2CCCC2)C3)n1	8.00 to 8.90
CC(C)n1cnnc1-c1cccc(NC(=O)c2cc3c(cn2)CCN(Cc2ccccn2)C3)n1	> 8.90

Other lines, results leading:

pIC50	SMILES
> 8.90	COc1cc2c(cc1C(=O)Nc1cccc(-c3nnnn3C(C)C)n1)CN(C(=O)c1ccc(F)cc1)CC2
> 8.90	COc1cc2c(cc1C(=O)Nc1cccc(-c3nncn3[C@H](C)CO)n1)CN(C(=O)C(C)(C)C)CC2
> 8.90	COc1cc2c(cc1C(=O)Nc1cccc(-c3nnnn3[C@H](C)CO)n1)CN(C(=O)N1CCCC1)CC2
8.00 to 8.90	COc1cc2c(cc1C(=O)Nc1cccc(-c3nnnn3[C@@H]3CCC[C@@H]3O)n1)CN(C(=O)OCC(F)(F)F)CC2
> 8.90	COc1cc2c(cc1C(=O)Nc1cccc(-c3nnnn3C(C)C)n1)CN(C)CC2
> 8.90	CCOC(=O)N1CCc2cc(OC)c(C(=O)Nc3cccc(-c4nnnn4C(C)C)n3)cc2C1
> 8.90	COc1cc2c(cc1C(=O)Nc1cccc(-c3nnnn3[C@H](C)CO)n1)CN(C(=O)C[C@H](C)O)CC2
8.00 to 8.90	COc1cc2c(cc1C(=O)Nc1cccc(-c3nnnn3C(C)C)n1)CN(S(=O)(=O)CCC(F)(F)F)CC2
> 8.90	COc1cc2c(cc1C(=O)Nc1cccc(-c3nncn3C(C)C)n1)CN(C(=O)OCC(F)(F)F)CC2
